From patent US20260125371A1, “METHOD FOR INHIBITING CLOSTRIDIOIDES DIFFICILE SPORE GERMINATION” (UNIVERSITY OF NOTRE DAME DU LAC, priority 2022, published 2026)
In brackets after ≈: the same amount, converted by molar mass. Entries after “also recorded” stand apart in the source; their conditions may differ. Where two headings read alike, the source gives them in different places.

How the values were obtained:
HepG2 cells = assay: XTT cytotoxicity assay; type: cell-based; details: Homo sapiens, HepG2, read-out: XTT IC50
THP-1 cells = assay: Lactate dehydrogenase (LDH) cytotoxicity assay; type: cell-based, human; details: for IC50: Homo sapiens
C. difficile ATCC 43255 [1] = assay: Determination of minimal-inhibitory concentrations (microdilution), C. difficile ATCC 43255; type: cell-based, Clostridioides difficile; details: for MIC: Clostridioides difficile; for MIC C. difficile: Table 1
S. aureus = assay: MIC against S. aureus strains; type: cell-based; details: S. aureus ATCC 29213, 24 h; for MIC: Staphylococcus aureus, ATCC29213, 24 h, read-out: MIC (μg/mL) 24 h
Gram-negative bacteria = type: cell-based
P. aeruginosa ATCC27853 = assay: MIC against P. aeruginosa; type: cell-based; details: Pseudomonas aeruginosa, ATCC27853
[2] = system: Lactobacillus gasseri HM-644; details: cited from earlier work
K. pneumoniae ATCC700603 = assay: MIC against K. pneumoniae; type: cell-based; details: Klebsiella pneumoniae, ATCC700603
[3] = system: Lactobacillus reuteri HM-102; details: cited from earlier work
[4] = system: Fusobacterium nucleatum HM-992; details: cited from earlier work
[5] = system: Clostridioides difficile infection; details: CDI patients; cited from earlier work
A. baumanii ATCC17961 = assay: MIC against A. baumanii; type: cell-based; details: Acinetobacter baumannii, ATCC17961
[6] = system: Bacteroides fragilis HM-709; details: cited from earlier work
Veillonella sp. HM-49 = details: cited from earlier work
E. coli ATCC25922 = assay: MIC against E. coli; type: cell-based; details: Escherichia coli, ATCC25922
[7] = system: C. difficile ATCC 43255 vegetative cells; assay: Mode of action by scanning electron microscopy (SEM); details: 8× MIC for 24 h
E. aerogenes ATCC35029 = assay: MIC against E. aerogenes; type: cell-based; details: Klebsiella aerogenes, ATCC35029
[8] = system: Bifidobacterium longum HM-846; details: cited from earlier work
[9] = system: extended panel of Gram-positive bacteria; assay: MIC range over extended panel of Gram-positive bacteria; type: cell-based
C. difficile ATCC 43255 [10] = type: cell-based, Clostridioides difficile
C. difficile ATCC 43255 [11] = assay: Minimal-bactericidal concentration (MBC); type: cell-based, Clostridioides difficile
[12] = Solubility observed during characterisation; details: DMSO, room temperature
[13] = THP-1, 24 h, read-out: LDH (IC50)
[14] = ATCC43255, 24 h, C. difficile ATCC 43255, 24 h, read-out: MIC (μg/mL) 24 h
[15] = ATCC43255, Table 1, strain ATCC 43255, read-out: MIC C. difficile
[16] = C. difficile ATCC 43255, 48-h incubation

| Structure (SMILES) | IC50 (THP-1 cells; [13]) | MIC (C. difficile ATCC 43255 [1]; [14]) | MIC (C. difficile ATCC 43255 [1]; [15]) | MIC (μg/mL) 24 h (S. aureus) | LDH (IC50) (THP-1 cells; THP-1 cells, 24 h) | MIC (μg/mL) 48 h (C. difficile ATCC 43255 [1]; [16]) | MIC (μg/mL) 24 h (C. difficile ATCC 43255 [1]; C. difficile ATCC 43255, 24 h) | MIC C. difficile (C. difficile ATCC 43255 [1]; strain ATCC 43255) | further results |
| --- | --- | --- | --- | --- | --- | --- | --- | --- | --- |
| O=[N+]([O-])c1cnc(-c2nc(-c3ccc(OC4CCC4)cc3)no2)[nH]1 [Compound 131, 3-(4-Cyclobutoxyphenyl)-5-(5-nitro-1H-imidazol-2-yl)-1,2,4-oxadiazole] | > 128 µg/mL | 0.5 µg/mL (≈ 1.53 µM) | 0.25 µg/mL (≈ 0.764 µM) | – | – | – | – | – | IC50 (HepG2 cells): 41.9 ± 4.5 µg/mL (≈ 128 µM); IC50 (THP-1 cells; THP-1, read-out: toxicity IC50 (LDH assay)): > 50 µg/mL |
| Oc1c(F)cc(-c2nc(-c3ccc(Oc4ccc(C(F)(F)F)cc4)cc3)no2)cc1F [Compound 11] | – | – | – | 2 µg/mL (≈ 4.6 µM) | 18 ± 2 µg/mL | 4 µg/mL (≈ 9.21 µM) | 4 µg/mL (≈ 9.21 µM) | 4 µg/mL (≈ 9.21 µM) | – |
| CN[C@H](CC(C)C)C(=O)N[C@H]1C(=O)N[C@@H](CC(N)=O)C(=O)N[C@H]2C(=O)N[C@H]3C(=O)N[C@H](C(=O)N[C@H](C(=O)O)c4cc(O)cc(O)c4-c4cc3ccc4O)[C@H](O)c3ccc(c(Cl)c3)Oc3cc2cc(c3O[C@@H]2O[C@H](CO)[C@@H](O)[C@H](O)[C@H]2O[C@H]2C[C@](C)(N)[C@H](O)[C@H](C)O2)Oc2ccc(cc2Cl)[C@H]1O [VAN, vancomycin] | – | – | – | – | – | – | – | – | activity against Gram-negative organisms (Gram-negative bacteria): no activity; MIC (P. aeruginosa ATCC27853): > 128 µg/mL; MIC [2]: 1 µg/mL (≈ 0.69 µM); MIC (K. pneumoniae ATCC700603): > 128 µg/mL; MIC [3]: >32 µg/mL; MIC [4]: 0.25 µg/mL (≈ 0.173 µM); recurrence of infection [5]: 24%; MIC (A. baumanii ATCC17961): > 128 µg/mL; MIC [6]: 16 µg/mL (≈ 11 µM); MIC (Veillonella sp. HM-49): >32 µg/mL; MIC (E. coli ATCC25922): > 128 µg/mL; effect on vegetative cells by SEM [7]: damage the cell wall; also recorded: same effect; MIC (E. aerogenes ATCC35029): > 128 µg/mL; MIC [8]: 0.25 µg/mL (≈ 0.173 µM); activity against Gram-positive bacteria [9]: has activity; increase in MIC on serial passage (C. difficile ATCC 43255 [10]): 16 fold; bactericidal or bacteriostatic (C. difficile ATCC 43255 [11]): bacteriostatic |
| O=[N+]([O-])c1c[nH]nc1-c1nc(-c2ccc(OC(F)(F)F)cc2)no1 [Compound 115, 5-(4-Nitro-1H-pyrazol-3-yl)-3-(4-(trifluoromethoxy)phenyl)-1,2,4-oxadiazole] | 25 ± 4 µg/mL (≈ 73.3 µM) | 2 µg/mL (≈ 5.86 µM) | 4 µg/mL (≈ 11.7 µM) | – | – | – | – | – | – |
| O=[N+]([O-])c1c[nH]nc1-c1nc(-c2ccc3oc4ccccc4c3c2)no1 [Compound 118, 3-(Dibenzo[b,d]furan-2-yl)-5-(4-nitro-1H-pyrazol-3-yl)-1,2,4-oxadiazole] | 9.8 ± 3.3 µg/mL (≈ 28.2 µM) | 4 µg/mL (≈ 11.5 µM) | 4 µg/mL (≈ 11.5 µM) | – | – | – | – | – | MIC (S. aureus): 2 µg/mL (≈ 5.76 µM) |
| Oc1ccc(-c2nc(-c3ccc(Oc4ccc(C(F)(F)F)cc4)cc3)no2)cc1 [Compound 9] | – | – | – | 1 µg/mL (≈ 2.51 µM) | 17 ± 1 µg/mL | 2 µg/mL (≈ 5.02 µM) | 2 µg/mL (≈ 5.02 µM) | 2 µg/mL (≈ 5.02 µM) | – |
| Oc1ccc(-c2nc(-c3ccc(Oc4ccc(C(F)(F)F)cc4)cc3)no2)cc1F [Compound 10] | – | – | – | 2 µg/mL (≈ 4.8 µM) | 5.2 ± 0.02 µg/mL | 4 µg/mL (≈ 9.61 µM) | 4 µg/mL (≈ 9.61 µM) | 4 µg/mL (≈ 9.61 µM) | – |
| Oc1ccc(-c2nc(-c3ccc(OC4CCCC=C4Br)cc3)no2)cc1 (stereo not drawn) [Compound 99, 4-(3-(4-((2-Bromocyclohex-2-en-1-yl)oxy)phenyl)-1,2,4-oxadiazol-5-yl)phenol] | 8.4 ± 0.3 µg/mL (≈ 20.3 µM) | 2 µg/mL (≈ 4.84 µM) | 2 µg/mL (≈ 4.84 µM) | – | – | – | – | – | MIC (S. aureus): 4 µg/mL (≈ 9.68 µM); MIC (C. difficile ATCC 43255 [1]; ATCC43255, 48 h, C. difficile ATCC 43255, 48-h incubation, read-out: MIC (μg/mL) 48 h): 2 µg/mL (≈ 4.84 µM) |
| Cl.NCc1ccc(-c2nc(-c3ccc(Oc4ccc(C(F)(F)F)cc4)cc3)no2)cc1 [Compound 17, (4-(3-(4-(4-(Trifluoromethyl)phenoxy)phenyl)-1,2,4-oxadiazol-5-yl)phenyl) methanamine hydrochloride salt] | – | 4 µg/mL | 4 µg/mL | – | – | – | – | – | MIC (S. aureus): 2 to 4 µg/mL; IC50 (THP-1 cells; THP-1 cells, 24 h, read-out: LDH (IC50)): 4.4 ± 0.7 µg/mL |
| O=[N+]([O-])c1cc(-c2nc(-c3ccc(Oc4ccc(C(F)(F)F)cc4)cc3)no2)cnc1O [Compound 16] | – | – | – | 8 µg/mL (≈ 18 µM) | 37 ± 11 µg/mL | 2 µg/mL (≈ 4.5 µM) | 2 µg/mL (≈ 4.5 µM) | 2 µg/mL (≈ 4.5 µM) | – |
| Cl.O=[N+]([O-])c1c[nH]c(-c2nc(-c3ccc(CN4CCCC4)cc3)no2)n1 [Compound 130] | – | > 128 µg/mL | – | – | – | – | – | – | solubility [12]: barely soluble in DMSO; MIC (μg/mL) 48 h (C. difficile ATCC 43255 [1]; C. difficile ATCC 43255, 48-h incubation, Hydrochloride): >128 µg/mL |
| O=[N+]([O-])c1c[nH]nc1-c1nc(-c2ccc(Oc3ccc(C(F)(F)F)cc3)cc2)no1 [Compound 30] | – | – | – | 2 µg/mL (≈ 4.79 µM) | 21 ± 5 µg/mL | 4 µg/mL (≈ 9.59 µM) | 4 µg/mL (≈ 9.59 µM) | 4 µg/mL (≈ 9.59 µM) | – |
